Data: ChEMBL document CHEMBL6074685, “Design, synthesis and biological evaluation of novel diaryl-substituted fused nitrogen heterocycles as tubulin polymerization inhibitors to overcome multidrug resistance in vitro and in vivo” (Eur J Med Chem, 2025)
In brackets after ≈: the same amount, converted by molar mass. Activity calls are given as the source filed them. The rule behind the calls is not given here.

Experiments:
[1] = (§1) Inhibition of pig brain tubulin polymerization measured upto 20 mins by absorbance based assay; parameters: species or system Sus scrofa
Sus scrofa = species on record: Sus scrofa; assay: as §1; settings: dose 0.4-12 µM
[2] = Toxicity in BALB/c mouse implanted with human A549/T cell assessed as Plate-letocrit at 15 mg/kg, ip administered every 2 days and measured after 2 weeks (reference value: 0.549%); assay type: organism-based; settings: in vivo, 336 h
A549 [3] = assay: Induction of apoptosis in human A549 cells at 25 nM incubated for 48 hrs by V-FITC/PI staining based flow cytometry analysis relative to control; assay type: functional
A549/TR [4] = assay: Induction of cell cycle arrest in human A549/T cell assessed as accumulation of cells at G2/M phase by RNAse A/PI-staining based flow cytometric analysis; assay type: functional; settings: dose 25-100 nM
A549/TR [5] = assay: Induction of apoptosis in human A549/T cell at 250 nM incubated for 48 hrs by V-FITC/PI staining based flow cytometry analysis relative to control; assay type: functional
[6] = Metabolic stability in mouse liver microsome assessed as half life measured upto 50 mins by LC-MS/MS analysis; assay type: ADME; settings: liver microsomes
A549/TR [7] = assay: Induction of apoptosis in human A549/T cell at 125 nM incubated for 48 hrs by V-FITC/PI staining based flow cytometry analysis relative to control; assay type: functional
[8] = Toxicity in BALB/c mouse implanted with human A549/T cell assessed as liver damage at 15 to 30 mg/kg, ip administered every 2 days by H and E staining based analysis; assay type: organism-based; settings: in vivo, 48 h, dose 15-30 mg/kg, time 2 day
A549/TR [9] = assay: Antiproliferative activity against human A549/T cell assessed as cell growth inhibition incubated for 48 hrs by MTT assay; assay type: functional, cell-based
[10] = Cytotoxicity against human MCF-10A cells assessed as inhibition of cell growth at 10 nM incubated for 48 hrs by MTT assay relative to control; assay type: toxicity, cell-based
[11] = Toxicity in BALB/c mouse implanted with human A549/T cell assessed as spleen damage at 15 to 30 mg/kg, ip administered every 2 days by H and E staining based analysis; assay type: organism-based; settings: in vivo, 48 h, dose 15-30 mg/kg, time 2 day
A549 [12] = assay: Effect on p-gp expression in human A549 cells by immunoblotting analysis; assay type: functional, cell-based
A549 [13] = assay: Induction of apoptosis in human A549 cells at 50 nM incubated for 48 hrs by V-FITC/PI staining based flow cytometry analysis relative to control; assay type: functional
Tubulin (Homo sapiens) = Tubulin (Homo sapiens) (UniProt P68371+Q9H4B7+P0DPH7+P68366+Q13509+Q71U36+P04350+Q3ZCM7+P07437+P68363+Q9BQE3+Q6PEY2+Q13885+Q9BVA1+Q9BUF5); assay: Disruption of microtubule network in human A549/T cell assessed as change in microtubule morphology at 100 to 200 nM incubated for 24 hrs by immunofluorescence staining based confocal microscopy analysis; settings: dose 100-200 nM
A549 [14] = assay: Inhibition of colony formation in human A549 cells incubated for 48 hrs by crystal violet staining based analysis; assay type: functional, cell-based; settings: dose 0.1-0.5 µM
[15] = Toxicity in BALB/c mouse implanted with human A549/T cell assessed as mean platelet volume at 30 mg/kg, ip administered every 2 days and measured after 2 weeks (reference value: 10.1 fL); assay type: organism-based; settings: in vivo, 336 h
[16] = Metabolic stability in mouse liver microsome assessed as intrinsic clearance measured upto 50 mins by LC-MS/MS analysis; assay type: ADME; settings: liver microsomes, read-out: CLH
[17] = Toxicity in BALB/c mouse implanted with human A549/T cell assessed as heart damage at 15 to 30 mg/kg, ip administered every 2 days by H and E staining based analysis; assay type: organism-based; settings: in vivo, 48 h, dose 15-30 mg/kg, time 2 day
[18] = Toxicity in BALB/c mouse implanted with human A549/T cell assessed as MCH level at 30 mg/kg, ip administered every 2 days and measured after 2 weeks (reference value: 29.2 pg); assay type: organism-based; settings: in vivo, 336 h
[19] = Toxicity in BALB/c mouse implanted with human A549/T cell assessed as platelet distribution width at 15 mg/kg, ip administered every 2 days and measured after 2 weeks (reference value: 15.3 fL); assay type: organism-based; settings: in vivo, 336 h
[20] = Toxicity in BALB/c mouse implanted with human A549/T cell assessed as mean platelet volume at 15 mg/kg, ip administered every 2 days and measured after 2 weeks (reference value: 10.1 fL); assay type: organism-based; settings: in vivo, 336 h
[21] = Toxicity in BALB/c mouse implanted with human A549/T cell assessed as platelet count at 30 mg/kg, ip administered every 2 days and measured after 2 weeks (reference value: 539 […]); assay type: organism-based; settings: in vivo, 336 h
[22] = Metabolic stability in human liver microsome assessed as half life measured upto 50 mins by LC-MS/MS analysis; assay type: ADME; settings: liver microsomes
[23] = Aqueous solubility of the compound […] at pH 7.4 by HPLC analysis; assay type: physicochemical
[24] = Toxicity in BALB/c mouse implanted with human A549/T cell assessed as red blood cell distribution width-cell size at 30 mg/kg, ip administered every 2 days and measured after 2 weeks (reference value: 12.1 fL); assay type: organism-based; settings: in vivo, 336 h
A549/TR [25] = assay: Downregulation of P-gp level in human A549/T cell measured after 48 hrs by immunoblotting analysis; assay type: functional, cell-based; settings: dose 62.5-500 nM
[26] = Toxicity in BALB/c mouse implanted with human A549/T cell assessed as MCHC level at 15 mg/kg, ip administered every 2 days and measured after 2 weeks (reference value: 570 g/L); assay type: organism-based; settings: in vivo, 336 h
[27] = Toxicity in BALB/c mouse implanted with human A549/T cell assessed as red blood cell distribution width-cell volume at 15 mg/kg, ip administered every 2 days and measured after 2 weeks (reference value: 25fL); assay type: organism-based; settings: in vivo, 336 h
A549 [28] = assay: Induction of apoptosis in human A549 cells at 100 nM incubated for 48 hrs by V-FITC/PI staining based flow cytometry analysis relative to control; assay type: functional
[29] = Cytotoxicity against human MCF-10A cells assessed as inhibition of cell growth at 2 nM incubated for 48 hrs by MTT assay relative to control; assay type: toxicity, cell-based
[30] = Toxicity in BALB/c mouse implanted with human A549/T cell assessed as platelet distribution width at 30 mg/kg, ip administered every 2 days and measured after 2 weeks (reference value: 15.3 fL); assay type: organism-based; settings: in vivo, 336 h
[31] = Toxicity in BALB/c mouse implanted with human A549/T cell assessed as MCHC level at 30 mg/kg, ip administered every 2 days and measured after 2 weeks (reference value: 570 g/L); assay type: organism-based; settings: in vivo, 336 h
[32] = Toxicity in BALB/c mouse implanted with human A549/T cell assessed as Plate-letocrit at 30 mg/kg, ip administered every 2 days and measured after 2 weeks (reference value: 0.549%); assay type: organism-based; settings: in vivo, 336 h
[33] = Toxicity in BALB/c mouse implanted with human A549/T cell assessed as WBC count at 30 mg/kg, ip administered every 2 days and measured after 2 weeks (reference value: 1.3 10^9/L); assay type: organism-based; settings: in vivo, 336 h
[34] = Toxicity in BALB/c mouse implanted with human A549/T cell assessed as red blood cell distribution width-cell size at 15 mg/kg, ip administered every 2 days and measured after 2 weeks (reference value: 12.1 fL); assay type: organism-based; settings: in vivo, 336 h
[35] = Toxicity in BALB/c mouse implanted with human A549/T cell assessed as change in body weight at 30 mg/kg, ip administered every 2 days; assay type: organism-based; settings: in vivo, 48 h, time 2 day

SMILES: COc1ccc(-c2cc(-c3ccc(OC)c(OC)c3OC)c3nc[nH]c3c2)cc1N
- IC50 [1]: 1.8 µM
- inhibition (Sus scrofa): Dose-dependent-effect
- Activity [2]: 0.531%
- Activity (A549 [3]): 15.47%
- Activity (A549/TR [4]): Dose-dependent-effect
- Activity (A549/TR [5]): 68.13%
- half-life [6]: 1.05 h
- Activity (A549/TR [7]): 54.01%
- Activity [8]: Non-toxic
- IC50 (A549/TR [9]): 0.057 µM
- inhibition at 48 h, 0.01 µM [10]: 20%
- Activity [11]: Non-toxic
- Activity (A549 [12]): inactive
- Activity (A549 [13]): 34.2%
- Activity (Tubulin (Homo sapiens)): Active
- inhibition (A549 [14]): Dose-dependent-effect
- Activity [15]: 10.2 fL
- CLint scaled [16]: 5.22 L/h/kg
- Activity [17]: Non-toxic
- Activity [18]: 31.6 pg
- Activity [19]: 17.9 fL
- Activity [20]: 10.5 fL
- Activity [21]: 415 10^9/L
- half-life [22]: 1.25 h
- solubility [23]: 0.0208 mg/mL (≈ 51.3 µM)
- Activity [24]: 12.3 fL
- Activity (A549/TR [25]): Dose-dependent-effect
- Activity [26]: 589 g/L
- Activity [27]: 24 fL
- Activity (A549 [28]): 44.42%
- inhibition at 48 h, 0.002 µM [29]: 1%
- Activity [30]: 16.9 fL
- Activity [31]: 624 g/L
- Activity [32]: 0.425%
- Activity [33]: 2.4 10^9/L
- Activity [34]: 12.1 fL
- Activity [35]: Non-toxic
